Source: patent US20250197437A1, “CANNABINOID COMPLEXES WITH IMPROVED PROPERTIES” (KEMIJSKI INŠTITUT, priority 2022, published 2025)
Where two headings read alike, the source gives them in different places.

Experiment: Water solubility test of cannabinoid:glucosamine complexes and pure cannabinoids (HPLC of supernatant)
Format: physicochemical
Conditions: thermodynamic from solid
Protocol: If considered necessary, sonication can also be applied. Afterwards, the solution is centrifuged at 3.000 g for 3 minutes and the supernatant is transferred to a HPLC vial. Concentration of dissolved cannabinoids is determined by analysis on an Agilent 1260 Infinity (Santa Clara, CA, USA) HPLC system. The chromatographic method is adapted from the literature (Križman, 2019). In short, the separation is performed on a Phenomenex (Torrance, CA, USA) Luna C18 (2) (octadecyl silica) chromatographic column, with dimensions 150 mm×3 mm i.d., 3 μm particle size, and temperature set at 37° C. Mobile phase is isocratic consisting of water/acetonitrile with a ratio of 9:31 (v/v), with 0.1% formic acid (v/v) and 10 mM ammonium formate, at a flow rate of 0.8 mL/min and injection volume 5 μL. The UV detection wavelength is 275 nm. The concentration of cannabinoids is determined using an external standard method.
For water solubility studies, 1-1.5 mg of the prepared complex was mixed with 1 mL of distilled water and stirred for 5-10 min, if necessary also sonication was applied. Afterwards the solution was centrifuged at 3.000 g for 3 minutes and the supernatant was transferred to the vials. Concentration of dissolved cannabinoids was determined by HPLC-DAD system (Agilent 1260 Infinity, Santa Clara, CA, USA).

[1] = 1-1.5 mg sample in 1 mL distilled water, stirred 5-10 min, centrifuged, HPLC, printed as greater-than/less-than bounds, read-out: Water solubility of cannabinoid

C=C(C)[C@@H]1CCC(C)=C[C@H]1c1c(O)cc(CCCCC)c(C(=O)O)c1O [CBDA, cannabidiolic acid]
solubility [1]: < 2 µg/mL

C=C(C)[C@@H]1CCC(C)=C[C@H]1c1c(O)cc(CCCCC)cc1O [CBD, cannabidiol]
solubility [1]: < 1 µg/mL

CCCCCc1cc(O)c(C/C=C(\C)CCC=C(C)C)c(O)c1 [CBG, cannabigerol]
solubility (water): < 1 µg/mL
